Active and inactive are the calls of the source.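 Rule for the calls: active = compounds giving half or more protection of infected cells from virus-caused growth loss, again on retest; inactive = the rest.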
Test system: CEM cells HIV-1 protection, formazan growth assay
Assay: NCI AIDS Antiviral Assay
Conditions: for IC50: measured here: growth of uninfected CEM cells
Outline: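 Five concentrations of each compound were applied to infected and uninfected human CEM cells. Protection from HIV-1 was judged from growth measured with a soluble formazan assay.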

| SMILES | outcome | EC50 [µM] | IC50 [µM] |
| --- | --- | --- | --- |
| CC1CC[C@@]2(O)C(CCCC2(C)C)[C@]1(C)CCc1ccoc1 (some centres not stated) | inactive | – | – |
| C/C(N)=C\c1nc(=O)ccs1 | – | > 178 | 129 |
| O=C(CCC[n+]1ccccc1)Sc1ccccc1C(=O)NCc1ccc2c(c1)OCO2 | – | > 16.6 | 3.39 |
| COc1cc(O)c2c(c1)C(O)C(O)CC1OC1C(=O)/C=C/CC(C)OC2=O (configuration not stated) | – | > 75.9 | 0.977 |
| N#Cc1c(N)n(-c2cccc(C(=O)O)c2)c(=O)c2cc([N+](=O)[O-])ccc12 | – | > 200 | > 200 |
| CNC(=O)CCCC=C(c1cc(Cl)c(OC)c(C(=O)NC)c1)c1cc(Cl)c(OC)c(C(=O)NC)c1 | – | > 200 | 38.9 |
| CC(=O)Nc1ccc(C2=N/C(=C\c3ccc(Cl)cc3)C(=O)O2)cc1 | – | > 11 | > 11 |
| OCCN1CCN(CCO)Cc2ccccc2OCCOc2ccccc2C1 | – | > 245 | 97.7 |
| O=S(=O)(O)Cc1ccc([As](=O)(O)O)cc1 | – | > 200 | 129 |
| O=C(O)c1c2c(nc3ccccc13)-c1ccccc1C1(CCCC1)C2 | – | > 468 | 170 |
| Cc1cnc2c(ccc3c(C)c(C)c(C)nc32)c1C.Cc1cnc2c(ccc3c(C)c(C)c(C)nc32)c1C.O=C1OC(C(O)C[O-])C(O)=C1O.[Cu+] | – | > 25.1 | 1.29 |
| CCCC(=O)C1=C(O)C(Cc2c(O)c(C)c(O)c(C(=O)CCC)c2O)=C(O)C(C)(C)C1=O | – | > 200 | 10.7 |
| CCOC(=O)CCC1(C)OC[C@H]2OC(n3cc(C)c(=O)[nH]c3=O)C[C@H]2N1O (some centres not stated) | – | > 200 | > 200 |
| CCN(CC)CSc1nc2ccccc2o1 | inactive | – | – |
| O=c1oc2ccccc2c(O)c1Cc1ccccc1Cc1c(O)c2ccccc2oc1=O | – | > 200 | 102 |
| CCn1nc(-c2ccccc2)c2c1N(C)c1ccccc1-n1c(-c3ccccc3)nnc1-2 | – | > 200 | 26.3 |
| COc1ccccc1/C=C(\NC(=O)c1ccccc1)c1nc2ccccc2[nH]1 | – | > 97.7 | 47.9 |

| SMILES | outcome | EC50 [µM] | IC50 [µM] |
| --- | --- | --- | --- |
| CC12CCC(=O)C=C1C=CC1C2CCC2(C)C1CCC21CCC(=O)O1 (configuration not stated) | – | > 200 | 83.2 |
| CC#CC#C/C=C1\C=CC2(OC=CC2OC(C)=O)O1 (configuration not stated) | inactive | – | – |
| O=C(Nc1cc(Cl)c(Cl)cc1Cl)C(=O)C(C(=O)c1ccc2ccccc2c1)C1OC(=O)c2ccccc21 (configuration not stated) | – | > 64.6 | 31.6 |
| COC(=O)[C@@H]1O[C@]12[C@@H](CO[Si](C)(C)C(C)(C)C)O[C@@H](n1cc(C)c(=O)[nH]c1=O)[C@@H]2O[Si](C)(C)C(C)(C)C | – | > 200 | 3.72 |
| Cc1cc2c(cc1C)Nc1oc3ccc4ccccc4c3c(=O)c1C=N2 | – | > 200 | > 200 |
| CC(C)(C)OC(=O)NC(CSCc1ccc(C(=O)c2ccccc2)cc1)C(=O)N1CCN(CCCCN2c3ccccc3Sc3cc(N=[N+]=[N-])ccc32)CC1 (configuration not stated) | – | > 200 | > 200 |
| NC1C2CN3CCC(O2)C13 (configuration not stated) | inactive | – | – |
| C=C(C)C#CC(O)(C(=O)OC1CCN(C)CC1)C(C)C (configuration not stated) | – | > 200 | > 200 |
| CN(C)CCn1c(=O)nc2c3c(c([N+](=O)[O-])ccc31)Nc1ccc(O)cc1-2 | – | > 2 | 1.95 |
| Cc1ccc(C(=O)C2C=C(c3ccc(C)cc3)SC3C=CCC32)cc1 (configuration not stated) | – | > 200 | 14.8 |
| COc1ccc(-c2cc(-c3ccccc3)nc3c2CC(=O)Nc2ccccc2-3)cc1OC | – | > 100 | 15.5 |
| CCC1(NC(=O)CN)C(=O)NC(=O)NC1=O | – | > 200 | > 200 |
| O=C1OC(c2ccccc2)(c2ccccc2)c2sccc21 | – | > 24.5 | > 24.5 |
| CCN(CC)CCNc1nc2c([nH]1)c(=O)n(C)c(=O)n2C | – | > 759 | 219 |
| COc1ccc(C[C@H]2COC(=O)[C@@H]2Cc2cc(OC)c(OC)c(OC)c2)cc1OC | – | > 200 | 115 |
| COc1cc(COC(=O)NC(Cc2cccs2)C(=O)O)c([N+](=O)[O-])cc1OC (configuration not stated) | – | > 603 | 427 |
